Data from ChEMBL document CHEMBL6177963, “Development of acylhydrazone linked thiazoles as non-covalent dual inhibitors of SARS-CoV-2 proteases” (Eur J Med Chem, 2025).

Tests used:
[1] = Inhibition of recombinant SARS-CoV-2 MPro overexpressed in Escherichia coli assessed as inhibition constant using VNSTLQISGLRLys(Dabcyl) as substrate by FRET assay; set-up: species or system Severe acute respiratory syndrome coronavirus 2
[2] = test system: Severe acute respiratory syndrome coronavirus 2; assay: Inhibition of recombinant SARS-CoV-2 MPro overexpressed in Escherichia coli assessed as inhibition constant using VNSTLQISGLRLys(Dabcyl) as substrate at 10 uM by FRET assay relative to control

## O=C(NNc1nc(-c2ccc(Cl)cc2)cs1)c1ccc(F)cc1
[1]; read-out: Ki
  Ki: 10.6 µM

## CCOC(=O)c1sc(NNC(=O)c2ccc(Cl)cc2)nc1C
[1]; read-out: Ki
  Ki: 14.9 µM

## CCOC(=O)c1sc(NNC(=O)c2ccc(F)cc2)nc1C
[1]
  Ki: Not_active
[2]
  inhibition: < 50%

## Clc1nc2ccccc2cc1/C=N/Nc1nc(-c2ccccc2)cs1
[1]
  Ki: Not_active
[2]
  inhibition: < 50%

## O=C(NNc1nc(-c2ccc(Cl)cc2)cs1)c1ccc(Cl)cc1
[1]; read-out: Ki
  Ki: 13.4 µM

## O=C(NNc1ncc(-c2ccc(Cl)cc2)s1)c1cccc(Cl)c1
[1]
  Ki: Not_active
[2]
  inhibition: < 50%

## O=C(NNc1nc(-c2ccc(Br)cc2)cs1)c1ccccc1
[1]
  Ki: Not_active
[2]
  inhibition: < 50%

## Cc1ccc(-c2csc(NNC(=O)c3ccc(F)cc3)n2)cc1
[1]; read-out: Ki
  Ki: 11.1 µM

## CCOC(=O)c1sc(NNC(=O)c2ccccc2C)nc1C
[1]
  Ki: Not_active
[2]
  inhibition: < 50%

## CCOC(=O)c1sc(NNC(=O)c2cccs2)nc1C
[1]; read-out: Ki
  Ki: 2.4 µM

## CCOC(=O)c1sc(NNC(=O)c2ccccc2OC)nc1C
[1]
  Ki: Not_active
[2]
  inhibition: < 50%

## Cc1ccc(C(=O)NNc2nc(-c3ccc(Br)cc3)cs2)cc1
[1]
  Ki: Not_active
[2]
  inhibition: < 50%

## CCOC(=O)c1sc(N/N=C/c2cc3ccccc3nc2Cl)nc1C
[1]
  Ki: Not_active

## Cc1ccc(-c2csc(NNC(=O)c3ccc(Cl)cc3)n2)cc1
[1]
  Ki: Not_active
[2]
  inhibition: < 50%

## Cc1ccc(C(=O)NNc2nc(-c3ccc(C)cc3)cs2)cc1
[1]
  Ki: Not_active
[2]
  inhibition: < 50%

## O=c1c2ccccc2[se]n1-c1ccccc1 [EBSELEN]
[1]; read-out: Ki
  Ki: 0.486 µM

## O=C(NNc1nc(-c2ccc(Br)cc2)cs1)c1ccc([N+](=O)[O-])cc1
[1]
  Ki: Not_active
[2]
  inhibition: < 50%

## CCOC(=O)c1sc(NNC(=O)c2cccc(Br)c2)nc1C
[1]
  Ki: Not_active
[2]
  inhibition: < 50%

## Cc1ccc(C(=O)NNc2nc(-c3ccc(Cl)cc3)cs2)cc1
[1]; read-out: Ki
  Ki: 9.37 µM

## CCOC(=O)c1sc(NNC(=O)c2ccc3ccccc3c2)nc1C
[1]
  Ki: Not_active
[2]
  inhibition: < 50%

## O=C(NNc1nc(-c2ccc(Br)cc2)cs1)c1ccc(Br)cc1
[1]
  Ki: Not_active
[2]
  inhibition: < 50%

## O=C(NNc1ncc(-c2ccc(Cl)cc2)s1)c1ccc2ccccc2c1
[1]
  Ki: Not_active
[2]
  inhibition: < 50%

## Cc1ccc(-c2csc(NNC(=O)c3ccc(Br)cc3)n2)cc1
[1]
  Ki: Not_active
[2]
  inhibition: < 50%

## O=C(NNc1nc(-c2ccc(Cl)cc2)cs1)c1ccc(Br)cc1
[1]
  Ki: Not_active
[2]
  inhibition: < 50%

## O=C(NNc1nc(-c2ccc(Br)cc2)cs1)c1ccc(F)cc1
[1]; read-out: Ki
  Ki: 4.28 µM

## COC(=O)c1sc(NNC(=O)c2ccc([N+](=O)[O-])cc2)nc1C
[1]
  Ki: Not_active
[2]
  inhibition: < 50%

## Cc1ccc(-c2csc(NNC(=O)c3ccc([N+](=O)[O-])cc3)n2)cc1
[1]; read-out: Ki
  Ki: 44.7 µM

## O=C(NNc1nc(-c2ccc(Br)cc2)cs1)c1ccc(Cl)cc1
[1]
  Ki: Not_active
[2]
  inhibition: < 50%

## CCOC(=O)c1sc(NNC(=O)c2ccc(C)cc2)nc1C
[1]
  Ki: Not_active
[2]
  inhibition: < 50%

## CCOC(=O)c1sc(NNC(=O)c2ccccc2)nc1C
[1]
  Ki: Not_active
[2]
  inhibition: < 50%

## CCOC(=O)c1sc(NNC(=O)/C=C/c2ccccc2)nc1C
[1]; read-out: Ki
  Ki: 1.1 µM

## CCOC(=O)c1sc(NNC(=O)c2ccco2)nc1C
[1]
  Ki: Not_active
[2]
  inhibition: < 50%

## CCOC(=O)c1sc(NNC(=O)c2cccc(Cl)c2)nc1C
[1]
  Ki: Not_active
[2]
  inhibition: < 50%

## Oc1ccc(/C=N/Nc2nc(-c3ccc(Cl)cc3)cs2)cc1
[1]; read-out: Ki
  Ki: 18.8 µM

## CCOC(=O)c1sc(NNC(=O)c2ccc(Br)cc2)nc1C
[1]; read-out: Ki
  Ki: 4.58 µM

## CCOC(=O)c1sc(NNC(=O)c2ccc([N+](=O)[O-])cc2)nc1C
[1]; read-out: Ki
  Ki: 0.73 µM
